The results in this text go back to patent US20230255930A1, “METHOD OF INCREASING THE POPULATION OF COPROCOCCUS SPP. IN THE GUT MICROBIOME” (priority 2020, published 2023).

The test system of assay [1] is Coprococcus. Briefly: Clinical study of colon-targeted vitamins; fecal relative abundance of Coprococcus by shotgun metagenomics. The format is in vivo. To be noted: human feces, colon-targeted delivery for four weeks, compared to baseline.
Source text: Twelve participants were allocated to each of the six vitamin groups, and 24 participants allocated to the placebo group. […] To be considered eligible for enrolment into the study, participants have to be able to give written informed consent; be aged between 20 and 50 years of age; have a BMI of between 18.5 - 30 Kg/m2; have a stable body weight (< 5% change) over the past 3-months; be in generally good health, as determined by the investigator; have not consumed dietary supplements, prebiotic, probiotic, dietary or fiber-rich supplements within 4 weeks prior to baseline visit and be willing to avoid these supplements until the end of the study; be willing to avoid liver consumption for the duration for the study, be willing to maintain their current level of physical activity for the duration of the study; and be willing to consume the IP daily for the duration of the study. Any participants who have a typical fiber intake >30 g/day; were pregnant or planning to become pregnant, have consumed disallowed medications; had made major dietary changes over the past three months or had planned major lifestyle changes; had taken part in a study within the previous 60 days; or had any ongoing or previous illness that the investigator deemed would impact on the objectives of the study were excluded. […] Each subject provided written informed consent before inclusion in the study.
At the final visit (Visit 3) participants retuned a fecal samples collected in the previous 48 hours. […] Participants returned their IP and compliance was assessed. […]
Assay [2] relates to Coprococcus. Put plainly: In vitro intestinal batch fermentation with human fecal suspension; 16S rRNA Illumina sequencing. The format is cell-based. The conditions noted are these: fermentation supernatant at 24 h, versus control. The procedure: At the start of this intestinal batch fermentation incubation, all test ingredients were added from stock solutions to the modified nutritional medium, containing (g/l): 2.5 K2HPO4, 10.9 KH2PO4, 2 NaHCO3, 2 yeast extract, 2 peptone, 1 mucin, 0.5 cysteine, 2 Tween 80, 2 glucose, 2 starch, 2 cellobiose, 0.1 NaCl, 0.01 MgSO4.7H2O, 0.01 CaCl2.6H2O, 0.05 hemin, 0.5 bile salts.
The following compounds were added from stock solutions prepared in water: • Beta-carotene, • Vitamin B3, • Vitamin B5, • Vitamin B7, • Fructooligosaccharides Fructooligosaccharides are included as a positive control.
As a source of the microbial community, freshly prepared fecal suspension from a human donor was added to the reactors. […] All tests, except the blanks, were performed in single repetition. Incubation conditions were 48 h at 37° C., under shaking (90 rpm) and anaerobic conditions.
Microbial composition: Illumina sequencing was performed at the start and after 24 h of incubation. The technique targets the16S rRNA gene that consists of variable and conserved regions, spread over the gene. Due to their key role in protein expression, the conserved regions are characterized by very low evolutionary rates.
The methodology applied involves primers that span 2 hypervariable regions (V3-V4) of the 16S rRNA gene. Using a pair-end sequencing approach, sequencing of 2×250 bp results in 424 bp amplicons. Such fragments are taxonomically more informative as compared to smaller fragments. In brief, mothur (v. 1.42.0) was used to assemble reads into contigs, perform alignment-based quality filtering (alignment to the mothur-reconstructed SILVA SEED alignment, v. 123), remove chimeras, assign taxonomy using a naïve Bayesian classifier and SILVA NR v132 and cluster contigs into OTUs. All sequences classified as Eukaryota, Archaea, Chloroplasts and Mitochondria were removed, as well as sequences that could not be classified. For each OTU, representative sequences were selected as the most abundant sequence within that OTU.

A further assay relates to Coprococcus comes. Briefly: Clinical study of colon-targeted vitamins; fecal relative abundance of Coprococcus comes by shotgun metagenomics. The format is in vivo. To be noted: human feces, colon-targeted delivery for four weeks. An excerpt: Twelve participants were allocated to each of the six vitamin groups, and 24 participants allocated to the placebo group. All 96 participants completed the intervention. To be considered eligible for enrolment into the study, participants have to be able to give written informed consent; be aged between 20 and 50 years of age; have a BMI of between 18.5 - 30 Kg/m2; have a stable body weight (< 5% change) over the past 3-months; be in generally good health, as determined by the investigator; have not consumed dietary supplements, prebiotic, probiotic, dietary or fiber-rich supplements within 4 weeks prior to baseline visit and be willing to avoid these supplements until the end of the study; be willing to avoid liver consumption for the duration for the study, be willing to maintain their current level of physical activity for the duration of the study; and be willing to consume the IP daily for the duration of the study. […]
The trial was a randomized, double-blind, placebo-controlled, parallel study in which subjects received either the vitamin supplement or placebo over four weeks. […] Before the randomization visit, participants food frequency questionnaires were analyzed to ensure their typical fiber intake is <30 g fiber/day. […]
At the baseline visit (Visit 2), participants retuned a fecal samples collected in the previous 48 hours and eligibility was assessed. […]

vitamin A: in the assay on Coprococcus [1], the “relative abundance of Coprococcus” value is listed as “trends for an increase”. As for `NC(=O)c1cccnc1` [vitamin B3, Niacinamide], the Coprococcus relative abundance entry with Coprococcus [2] (doses 0.2x, 1x, 5x tested) was “no distinct increase”. Still for that read-out and setting: the result for `O=C(O)CCCC[C@@H]1SC[C@@H]2NC(=O)N[C@@H]21` [vitamin B7, Biotin] reads “no distinct increase”.

Turning to `CC(C)(CO)[C@@H](O)C(=O)NCCC(=O)O` [vitamin B5, Pantothenic acid], the Coprococcus relative abundance entry in the assay with Coprococcus [2] (dose 0.2x) and in the assay with Coprococcus [2] (dose 5x) was “increased” in each case. Regarding `CC1=C(/C=C/C(C)=C/C=C/C(C)=C/C=C/C=C(C)/C=C/C=C(C)/C=C/C2=C(C)CCCC2(C)C)C(C)(C)CCC1` [beta-carotene, β-carotene], the Coprococcus relative abundance entry in the assay with Coprococcus [2] (dose 1x) and with Coprococcus [2] (dose 5x) was “increased” in each case. As to `O=C1O[C@H]([C@@H](O)CO)C(O)=C1O` [vitamin C, ascorbic acid], the “relative abundance of Coprococcus” value with Coprococcus [1] is on record as “not”.

On to `C=C1CC[C@H](O)C/C1=C/C=C1\CCC[C@]2(C)[C@@H]([C@H](C)CCCC(C)C)CC[C@@H]12` [vitamin D3, cholecalciferol], for which the “Coprococcus comes relative abundance” value in the assay with Coprococcus comes (compared to baseline (p = 0.04)) and in the assay on Coprococcus comes (compared to placebo group (p = 0.028)) was “significant increase” in each case. Besides, the “relative abundance of Coprococcus” value in the assay with Coprococcus [1] is “trends for an increase”.
